Measured values published in publication PMC8191290, “Substrate specificities and reaction kinetics of the yeast oligosaccharyltransferase isoforms” (The Journal of Biological Chemistry, 2021).

Target: T1, OST3 complex (Saccharomyces cerevisiae, UniProt P39007)
T1 construct: were purified separately from strains expressing only one type of complex; made in house; host or cells: Saccharomyces cerevisiae, BY4742-derived strain ost6::LEU2MX6 OST4-1D4::kanMX6 YEp352-OST3
Assay: Turnover of synthetic TAMRA-labeled peptides
Assay type: biochemical
Conditions: for Turnover after 5 min / Glycopeptide detected / Relative turnover: 0.5 µM OST3 complex, 20 µM peptide; for Turnover after 5 min / Relative turnover: 150 µM LLO C20; for Glycopeptide detected: 150 µM LLO C20, 5 min; for Relative turnover: TAMRA-DANYTK turnover defined as 100 %, 5 min
Procedure: TAMRA-labeled peptides with 5-TAMRA at the N-terminus and an amide group at the C-terminus were synthesized by WatsonBio Sciences. Unlabeled peptides (Table S1) were synthesized by Genscript Corp. and were designed so that the asparagine of the glycosylation sequon was in the middle (except for Peptide 8). Lyophilized peptides were dissolved in dimethyl sulfoxide (DMSO), unless specified otherwise, to a 3 mM stock solution and further diluted in ddH2O for reactions.
Reactions were performed in a total volume of 10 μl containing the specified amount of TAMRA-labeled peptide, synthetic LLO analog, 10 mM MnCl2, and purified OST after size-exclusion chromatography in purification buffer (50 mM Hepes, pH 7.5, 150 mM NaCl, 1 mM MgCl2, 1 mM MnCl2, 10% (v/v) glycerol, 0.03% (w/v) DDM, and 0.006% (w/v) CHS). The concentration of OST was calculated using the molecular weight of 280 kDa. The reaction mixture was preincubated at 30 °C for 5 min before adding the peptide to start the reaction that proceeded at 30 °C. Time points were taken such that the reaction was in the linear phase. At each time point, 1 μl reaction mixture was taken and the reaction was stopped by dilution in stop solution (0.1% FA in 10% ACN, 10 mM KPO4 pH 8.0) such that the final peptide concentration was 2 μM.
Samples were analyzed by reverse-phase chromatography using a UPLC Dionex UltiMate 3000 with an Accucore 150-C18 100 × 2.1 mm 2.6 μm column (Thermo Fisher Scientific). One microliter sample (2 pmol of peptide) was injected and measured by isocratic elution using a certain proportion of ACN (15% ACN for peptide TAMRA-DANYTK; 20% ACN for peptide TAMRA-YANATS) in 10 mM KPO4, pH 8.0 buffer so that the glycopeptide and peptide are fully separated and elute within 3 min at a constant flow rate of 0.7 ml/min, with a column temperature of 45 °C. The peptide and glycopeptide were detected through TAMRA fluorescence (excitation wavelength: 546 nm; emission wavelength: 579 nm).
The UPLC profiles were analyzed by integrating the peaks corresponding to the glycopeptide and peptide using Chromeleon 7 (Dionex) and calculating the amount of glycopeptide formed using the following equation, as previously described ([43]): [GP]=PeakareaGP/PeakareaP+PeakareaGP×[P] […]
Supp. Table 2. Turnover of synthetic TAMRA-labeled peptides
Peptide Glycopeptide Turnover after 5 min Relative turnover […]
TAMRA, tetramethylrhodamine
Turnover of TAMRA-labeled peptides after 5 min was determined using 0.5 µM OST3 complex, 20 µM indicated peptide and 150 µM LLO C20. Relative turnover compared to TAMRA-DANYTK is given by defining TAMRA-DANYTK turnover as 100 %.

| Substance | Turnover after 5 min | Glycopeptide detected | Relative turnover | times faster glycosylation than TAMRA-DANYTK (OST3 complex, initial turnover, relative to TAMRA-DANYTK) |
| --- | --- | --- | --- | --- |
| TAMRA-DANYTK-NH2 [fluorescently labeled hexapeptide TAMRA-DANYTK-NH2 as the acceptor peptide, reference compound] | 6% | Yes | 100% |  |
| TAMRA-YANATS [shorter version of Peptide 5 of only six amino acid residues (TAMRA-YANATS)] | 84% | Yes | 1400% | 14 times |
